# Legend:
# Test in all cases: relative viability (nuclei count vs DMSO), 5 days (fraction); higher = more cells survive
# [1] = compound: NCC(=O)Nc1ccc(-n2nc(C(F)(F)F)cc2-c2ccc3c(ccc4ccccc43)c2)cc1 + Cc1cc(Nc2cc(N3CCN(C)CC3)nc(Sc3ccc(NC(=O)C4CC4)cc3)n2)n[nH]1 [Tozasertib] (partner 0.1 µM)
# Summary of the method: (§1)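 Lung cancer cell lines in 1536-well plates got either a single drug or a fixed anchor-drug dose together with five library-drug doses (not always all listed) in √10 steps, by pin tool, on the day after seeding. Nuclei were counted after 5 days, and relative viability is the treated-to-vehicle ratio of nuclei counts. Values are medians of duplicate plates.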
# [2] = compound: C1CSC2=C(C(=O)N1)SC3=C2C=C(C=C3)O [kb NB 142-70] + CCNC(=O)c1noc(-c2cc(C(C)C)c(O)cc2O)c1-c1ccc(CN2CCOCC2)cc1 [Luminespib] (partner 0.01 µM)
# Summary of the method: as §1
# kb NB 142-70 + Foretinib = compound: C1CSC2=C(C(=O)N1)SC3=C2C=C(C=C3)O [kb NB 142-70] + COc1cc2c(Oc3ccc(NC(=O)C4(C(=O)Nc5ccc(F)cc5)CC4)cc3F)ccnc2cc1OCCCN1CCOCC1 [Foretinib] (partner 0.25 µM)
# Summary of the method: as §1
# [3] = compound: C1CSC2=C(C(=O)N1)SC3=C2C=C(C=C3)O [kb NB 142-70] + CS(=O)(=O)N1CCN(Cc2cc3nc(-c4cccc5[nH]ncc45)nc(N4CCOCC4)c3s2)CC1 [Pictilisib] (partner 1 µM)
# Summary of the method: as §1
# [4] = compound: NCC(=O)Nc1ccc(-n2nc(C(F)(F)F)cc2-c2ccc3c(ccc4ccccc43)c2)cc1 + C[C@]1(O)C[C@@H](c2nc(-c3ccc4ccc(-c5ccccc5)nc4c3)c3c(N)nccn32)C1 [Linsitinib] (partner 1 µM)
# Summary of the method: as §1
Cell Line,relative viability ([1]; first compound 0.02 µM),relative viability ([1]; first compound 0.06325 µM),relative viability ([1]; first compound 0.2 µM),relative viability ([1]; first compound 0.6325 µM),relative viability ([1]; first compound 2 µM),relative viability ([2]; first compound 0.1 µM),relative viability ([2]; first compound 1 µM),relative viability ([2]; first compound 3.162 µM),relative viability (kb NB 142-70 + Foretinib; first compound 0.1 µM),relative viability (kb NB 142-70 + Foretinib; first compound 1 µM),relative viability (kb NB 142-70 + Foretinib; first compound 3.162 µM),relative viability ([3]; first compound 0.1 µM),relative viability ([3]; first compound 1 µM),relative viability ([3]; first compound 3.162 µM),relative viability ([4]; first compound 0.02 µM),relative viability ([4]; first compound 0.06325 µM),relative viability ([4]; first compound 0.2 µM),relative viability ([4]; first compound 0.6325 µM),relative viability ([4]; first compound 2 µM)
NCI-H1648,0.362,0.532,0.502,0.503,0.399,–,–,–,–,–,–,–,–,–,–,–,–,–,–
SK-MES-1,0.939,1,0.914,0.866,0.856,0.84,0.743,0.35,0.875,0.939,0.985,0.333,0.325,0.235,1.08,1.03,1.11,0.997,1.17
HCC-366,0.42,0.18,0.118,0.15,0.0801,–,–,–,0.93,0.858,0.895,0.13,0.127,0.092,0.784,0.645,0.431,0.557,0.675
201T,0.943,0.958,1.04,0.924,0.928,1.04,1.03,1.08,1.07,1.17,1.08,0.683,0.649,0.698,0.957,1.01,1.09,1.09,1.04
HCC-827,0.38,0.437,0.389,0.427,0.446,0.589,0.59,0.373,1.08,0.981,0.852,0.832,1.13,0.781,0.93,0.972,1,0.956,0.958
NCI-H647,0.286,0.314,0.425,0.233,0.254,0.177,0.184,0.11,1.28,1.28,1.24,0.497,0.474,0.408,1.23,1.25,1.12,1.31,0.915
NCI-H2023,0.326,0.394,0.441,0.387,0.321,0.747,0.661,0.272,0.859,0.89,0.663,0.258,0.207,0.227,0.805,0.682,0.712,0.623,0.707
NCI-H520,0.492,0.425,0.402,0.424,0.398,0.255,0.247,0.214,0.718,0.866,0.655,0.297,0.282,0.165,1.02,0.904,1.07,0.91,1.13
RERF-LC-KJ,0.449,0.548,0.555,0.552,0.403,1.33,1.27,0.936,0.941,0.905,0.938,0.504,0.519,0.374,0.923,0.84,0.9,0.857,0.982
A-427,–,0.213,0.191,0.208,0.205,0.845,1.12,0.584,1.14,1.25,0.929,0.816,0.753,0.748,1.12,1.17,1.16,1.02,1.03
NCI-H441,0.642,0.522,0.747,0.603,0.697,0.397,0.353,0.244,0.939,1.15,0.459,0.497,0.429,0.305,0.634,0.486,0.509,0.657,0.668
NCI-H1703,–,–,–,–,–,–,–,–,0.351,0.338,0.346,0.249,0.286,0.255,0.718,0.781,0.52,0.691,0.591
NCI-H1792,–,–,–,–,–,0.429,0.582,0.553,–,–,–,0.323,0.269,0.396,0.507,0.647,0.549,0.625,0.552
Calu-6,–,–,–,–,–,–,–,–,0.809,0.896,0.54,0.873,0.805,0.457,0.914,0.939,1.06,0.911,0.983
SK-LU-1,0.324,0.335,0.386,0.346,0.339,0.198,0.199,0.204,0.782,0.732,0.346,0.608,0.484,0.324,1.16,1.1,1.5,1.15,1.15
PC-3 [JPC-3],0.9,0.889,0.976,0.971,0.828,0.709,0.817,0.627,0.999,1.07,1.01,0.769,0.768,0.672,0.957,0.977,0.992,0.963,0.961
EMC-BAC-2,0.29,0.314,0.325,0.308,0.302,1.25,1.17,0.972,0.994,1.01,0.581,0.581,0.562,0.431,0.86,0.848,0.853,0.81,0.821
LK-2,0.159,0.185,0.183,0.188,0.171,0.206,0.215,0.173,1.15,1.07,0.819,0.483,0.42,0.183,0.686,0.437,0.483,0.555,0.522
NCI-H2126,0.842,0.892,0.874,0.864,0.852,0.797,0.878,0.879,1.18,0.869,1.14,0.519,0.479,0.515,0.7,0.745,0.687,0.664,0.763

# — the supplement of paper PMC10307832
